Assay results published in PMC11876601 (Molecular Systems Biology, 2025).
Like-named read-outs stand apart in the source and are kept apart here.

Tested on: p-sites in DNA-damaged AsPC-1 cells
Test: decryptM dose-resolved phosphoproteomics of ATRi in GEM-pre-treated cells
Type: cell-based, human
Settings: for EC50: Homo sapiens
Experimental: Cell culture medium was replaced 24 h after seeding. […] For time point 0, AsPC-1 cells were treated with a vehicle and lysed immediately. The final DMSO concentration in all experiments was 0.2%.
Briefly, cells were washed twice with PBS and lysed in SDS lysis buffer (2% SDS in 40 mM Tris-HCl, pH 7.6), followed by sonication for 10 min (30 s on/30 s off) using a Bioruptor (Diagenode). For DNA hydrolysis, samples were boiled at 95 °C for 10 min and incubated with 2% trifluoroacetic acid (TFA) for 1 min, before the reaction was quenched using 4% N-methylmorpholine. Lysate was cleared by centrifugation at 11,000 × g for 5 min and protein concentration was determined using the Pierce BCA Protein Assay Kit (Thermo Scientific).
Using 70% ethanol, samples were then precipitated on beads, followed by washing thrice with 80% ethanol and once with 100% acetonitrile. Subsequently, proteins were reduced and alkylated using 10 mM TCEP, 50 mM chloroacetamide, and 2 mM CaCl2 in 100 mM EPPS/NaOH, pH 8.5 for 1 h at 37 °C, followed by tryptic digestion at 37 °C for 16 h. Peptides were acidified with 1% TFA and desalted on Chromabond HLB plates (30 µm particle size, 10 mg capacity, Machery-Nagel), using 0.1% TFA for equilibration and sample loading, and 0.1% TFA in 70% acetonitrile for peptide elution. Recovered peptides were freeze-dried by vacuum-centrifugation and stored at −20 °C.
Depending on the experiment, samples were either labeled with TMT-11plex (decryptM), TMT-10plex (non-decryptM, quadruplicates), or TMTpro reagent (time-series; all Thermo Scientific). Therefore, dried peptides were reconstituted in 15 µl 100 mM EPPS, pH 8.5 and each treatment condition was labeled with one channel of the respective TMT reagent (5 µl of 25 µg/µl reagent, Appendix Tables S4–S6). The reaction was incubated for 1 h at 23 °C and subsequently quenched with 0.4% hydroxylamine. Then, samples were pooled, acidified with 1% formic acid, and freeze-dried by vacuum-centrifugation. Labeled peptide pools were desalted on C18 Sep-Pak cartridges (37–55 µm particle size, 50 mg capacity, Waters), using 0.1% formic acid as equilibration solvent, and 0.1% formic acid in 60% acetonitrile was used as elution solvent. Eluted peptides were freeze-dried and stored at −20 °C until further use.
Basic reversed-phase (bRP) fractionation of peptides was performed on a Vanquish HPLC (Thermo Scientific). In short, dried peptides were reconstituted in 200 µl 25 mM ammonium bicarbonate, pH 8.0 and directly injected onto a Waters BEH130 XBridge C18 column (3.5 µm, 4.6 × 250 mm). […] Using an automated fraction collector, 96 fractions were collected between min 7 and 55 after injection. Fractions were acidified with 1% formic acid and pooled to 48 fractions, before they were freeze-dried and stored at −20 °C.
Immobilized metal ion affinity chromatography (IMAC) enrichment of phosphorylated peptides was performed on the Bravo automated liquid handling platform using AssayMAP Fe(III)-NTA cartridges (Agilent). In brief, the 48 dried peptide fractions were reconstituted in 0.1% TFA in 80% acetonitrile and further pooled to 12 fractions (200 µl final volume per well). The phosphopeptide enrichment protocol embedded in the Agilent AssayMAP Bravo Protein Sample Prep Workbench v2.0 software was run. Thereby, the cartridges were first primed with 150 μl 0.1% TFA in acetonitrile at 300 μl/min, and equilibrated with 150 μl 0.1% TFA in 80% acetonitrile at 10 μl/min. Then, pooled fractions were loaded at 5 µl/min and further washed three times with 150 μl 0.1% TFA in 80% acetonitrile at 50 μl/min. Enriched peptides were eluted with 60 μl 1% ammonium hydroxide at 5 μl/min.

With CNCc1ccc(-c2cc(-c3nc(-c4ccc(S(=O)(=O)C(C)C)cc4)cnc3N)on2)cc1 [Berzosertib] the “Log2 PTM response (GEM+ATRi vs. GEM)” value (AASDHPPT-pS258) was -2, the “Log2 PTM response (GEM+ATRi vs. GEM)” value (BRCA1-pS1239) was -1.2 and the “Log2 PTM response (GEM+ATRi vs. GEM)” value (BRD8-pS621) was -2.5. The “Log2 PTM response (GEM+ATRi vs. GEM)” value (CDKN2AIP-pS198) was -2, the “Log2 PTM response (GEM+ATRi vs. GEM)” value (CHEK1-pS317) was -2.8 and the “Log2 PTM response (GEM+ATRi vs. GEM)” value (CHEK1-pS468) was -2.9. For the same compound, the “Log2 PTM response (GEM+ATRi vs. GEM)” value (DHX9-pS321) was -2.3, the “Log2 PTM response (GEM+ATRi vs. GEM)” value (EXO1-pS714) was -2.7 and the “Log2 PTM response (GEM+ATRi vs. GEM)” value (FANCD2-pS319) was -2.6. The “Log2 PTM response (GEM+ATRi vs. GEM)” value (HDGF-pS103) was -2.4, the “Log2 PTM response (GEM+ATRi vs. GEM)” value (HMGA1-pS9) was -3 and the “Log2 PTM response (GEM+ATRi vs. GEM)” value (HMGA1-pS36;S44) was -1.4. For the same compound, the “Log2 PTM response (GEM+ATRi vs. GEM)” value (HMGA1-pS44) was -2.9, the “Log2 PTM response (GEM+ATRi vs. GEM)” value (HSPA4-pS552) was -2.1 and the “Log2 PTM response (GEM+ATRi vs. GEM)” value (HTATSF1-pS481) was -2. For the same compound, the EC50 (ASPC1, read-out: EC50 of the majority of pSQ/pTQ sites) was ~0.1 µM, the EC50 (ASPC1, read-out: pEC50 of the majority of pSQ/pTQ sites (converted)) was ~0.1 µM and the EC50 (ASPC1, p-site dose-response in GEM-pre-treated cells, read-out: EC50, PPM1G S201) was 0.0616 µM. It also gave an EC50 (ASPC1, p-site dose-response in GEM-pre-treated cells, read-out: EC50, RALY S176) of 0.124 µM, an EC50 (ASPC1, p-site dose-response in GEM-pre-treated cells, read-out: pEC50, PPM1G S201 (converted)) of 0.0617 µM and an EC50 (ASPC1, p-site dose-response in GEM-pre-treated cells, read-out: pEC50, RALY S176 (converted)) of 0.126 µM. For the same compound, the EC50 (ASPC1, read-out: median EC50 across all drug-regulated pSQ/pTQ-sites) was 0.188 µM, the “Log2 PTM response (GEM+ATRi vs. GEM)” value (LRRC42-pS385) was -3.3 and the “Log2 PTM response (GEM+ATRi vs. GEM)” value (NBN-pS397) was -1.8. For the same compound, the “Log2 PTM response (GEM+ATRi vs. GEM)” value (NBN-pS615) was -0.9, the “Log2 PTM response (GEM+ATRi vs. GEM)” value (NSUN5-pS432) was -3.5 and the “Log2 PTM response (GEM+ATRi vs. GEM)” value (PELP1-pS1033) was -1.4. For the same compound, the “Log2 PTM response (GEM+ATRi vs. GEM)” value (PHF14-pS294) was -1.9, the “Log2 PTM response (GEM+ATRi vs. GEM)” value (PNISR-pS706) was -2.2 and the “Log2 PTM response (GEM+ATRi vs. GEM)” value (PPM1G-pS201) was -3.5. For the same compound, the “Log2 PTM response (GEM+ATRi vs. GEM)” value (PPP6R3-pS825) was -1.4, the “Log2 PTM response (GEM+ATRi vs. GEM)” value (PSMD4-pS266) was -1.6 and the “Log2 PTM response (GEM+ATRi vs. GEM)” value (RAD18-pS368) was -1. The “Log2 PTM response (GEM+ATRi vs. GEM)” value (RIF1-pS1873) was -2.2, the “Log2 PTM response (GEM+ATRi vs. GEM)” value (SNRPA-pS115) was -1.2 and the “Log2 PTM response (GEM+ATRi vs. GEM)” value (TCEA1-pS100;S97) was -1. For the same compound, the “Log2 PTM response (GEM+ATRi vs. GEM)” value (TCEB3-pS251) was -2.1, the “Log2 PTM response (GEM+ATRi vs. GEM)” value (TOPBP1-pS1504) was -1.9 and the “Log2 PTM response (GEM+ATRi vs. GEM)” value (TSEN34-pS136) was -1.2. The “Log2 PTM response (GEM+ATRi vs. GEM)” value (UHRF1-pS393) was -2.3, the “Log2 PTM response (GEM+ATRi vs. GEM)” value (UIMC1-pS171) was -1.5 and the “Log2 PTM response (GEM+ATRi vs. GEM)” value (ZC3H14-pS135) was -1.5. For the same compound, the “ATRi Regulation (Curve), PPM1G S201” value (classified by CurveCurator) was “down”, the “ATRi Regulation (Curve), RALY S176” value (classified by CurveCurator) was “down” and the “PTM response (norm. to 1 µM GEM)” value (source data 4B (p-site not named), 1 µM GEM + ATRi 1 nM) was 1.08. For the same compound, the “PTM response (norm. to 1 µM GEM)” value (source data 4B (p-site not named), 1 µM GEM + ATRi 3 nM) was 1.06, the “PTM response (norm. to 1 µM GEM)” value (source data 4B (p-site not named), 1 µM GEM + ATRi 10 nM) was 0.94 and the “PTM response (norm. to 1 µM GEM)” value (source data 4B (p-site not named), 1 µM GEM + ATRi 30 nM) was 1.20. For the same compound, the “PTM response (norm. to 1 µM GEM)” value (source data 4B (p-site not named), 1 µM GEM + ATRi 100 nM) was 0.78, the “PTM response (norm. to 1 µM GEM)” value (source data 4B (p-site not named), 1 µM GEM + ATRi 300 nM) was 0.40 and the “PTM response (norm. to 1 µM GEM)” value (source data 4B (p-site not named), 1 µM GEM + ATRi 1000 nM) was 0.20. For the same compound, the “PTM response (norm. to 1 µM GEM)” value (source data 4B (p-site not named), 1 µM GEM + ATRi 3000 nM) was 0.14, the “PTM response (norm. to 1 µM GEM)” value (source data 4B (p-site not named), 1 µM GEM + ATRi 10000 nM) was 0.15 and the “PTM response (norm. to 1 µM GEM)” value (source data 5B (p-site not named), 1 µM GEM + ATRi 1 nM) was 0.81. For the same compound, the “PTM response (norm. to 1 µM GEM)” value (source data 5B (p-site not named), 1 µM GEM + ATRi 3 nM) was 0.96, the “PTM response (norm. to 1 µM GEM)” value (source data 5B (p-site not named), 1 µM GEM + ATRi 10 nM) was 0.69 and the “PTM response (norm. to 1 µM GEM)” value (source data 5B (p-site not named), 1 µM GEM + ATRi 30 nM) was 0.83. For the same compound, the “PTM response (norm. to 1 µM GEM)” value (source data 5B (p-site not named), 1 µM GEM + ATRi 100 nM) was 0.51, the “PTM response (norm. to 1 µM GEM)” value (source data 5B (p-site not named), 1 µM GEM + ATRi 300 nM) was 0.19 and the “PTM response (norm. to 1 µM GEM)” value (source data 5B (p-site not named), 1 µM GEM + ATRi 1000 nM) was 0.12. The “PTM response (norm. to 1 µM GEM)” value (source data 5B (p-site not named), 1 µM GEM + ATRi 3000 nM) was 0.13 and the “PTM response (norm. to 1 µM GEM)” value (source data 5B (p-site not named), 1 µM GEM + ATRi 10000 nM) was 0.12.
